Common to all, as to format: cell-based
Series [1] can be described thus: Human hepatoma viability assay (CellTiter-Blue). As to conditions: human, replicate data points, read-out: Huh7 viability, dose-response data points (Figure 3F); for viability at 48 h, 0.137174 µM: 0.137174210 uM. The procedure, abridged: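 Huh7 cells (10,000/well) were seeded and treated the next day with serially diluted compound or DMSO, with media partially renewed with fresh dilutions over two days.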
(Resazurin is reduced to fluorescent resorufin, in cell work by metabolically active cells.)

In series [2] the test system is P. falciparum CAM3.IIREV ring stages (0–3 h post invasion). In words: Plasmodium falciparum ring stage survival assay, susceptible revertant strain. As for the experimental part:
(§1) Following tight synchronisation using sorbitol and Percoll® floatation, ring stage CAM3.II and CAM3.IIREV parasites (0–3 h post invasion) at 1% parasitaemia and 2% haematocrit were incubated with 700 nM of compounds or solvent-only controls for exactly 6 h, before removing the drug, thoroughly washing in RPMI with HEPES, and returning to culture conditions for a further 66 h. Some cells were treated with 700 nM artesunate for 72 h as a no-growth control. DNA replication (indicating growth) was measured at the specified time using SYBR Safe DNA Stain. Microscope slide smears of each condition were stained with 10% v/v Giemsa and examined under a light microscope (×1000 magnification); with ‘viable’ (morphologically normal) and ‘non-viable’ (morphologically aberrant; vacuolated or pyknotic) parasites distinguished according to standard protocol (Witkowski et al, [2013]). Images were captured using a Leica ICC50 camera, with a resolution of 76 nm per pixel, and cropped from larger images using Fiji ImageJ.
(§2) Appendix Fraser/Curtis et al.
(§3) Cells were detached from a flask using 0.25% Trypsin with 0.2 g/L EDTA (Sigma T4049) and washed with culture media containing no phenol red. Cells were incubated with a serial dilution of each compound, or media/DMSO alone. The protein synthesis inhibitor cycloheximide (Sigma 01810) at 10 µg/mL was used as a positive control to determine background absorbance. 5,000 cells were seeded in each well. After 96 hours, 0.45 mg/mL methylthiazolyldiphenyl-tetrazolium bromide (MTT; Sigma M2128) was added and incubated for a further two hours, before mixing 1.1:1 with 10% w/v sodium dodecyl sulfate (SDS) to solubilise crystals and freezing the plate at -18 °C to stop the assay. Plates were defrosted at room temperature and absorbance was read at 570 nm in an Infinite M1000 pro plate reader […]
(§4) Plasmodium falciparum Ring Stage Survival Assay
(§5) Ring stage survival assays were conducted according to standard protocols with some modifications (27, 28). CAM3.11 and CAM3.11REV parasites were sorbitol synchronised twice, 12 hours apart, and then incubated for a further 30 hours until the majority of the parasites were mature schizonts (with clearly separated nuclei). Pelleted RBCs were incubated at 37 °C with heparinised RPMI for 15 minutes, and then centrifuged over 75% Percoll® in PBS for 15 minutes at 1,000 g. Mature schizonts were collected, washed with warm RPMI, and cultured for exactly three hours with fresh uRBCs and culture media. After 3 hours, the cultures were sorbitol synchronised and incubated in duplicate with 700 nM of artesunate, PAYb076a, GGA5, HJB8a53, a DMSO solvent-only control or media alone for exactly six hours, before removing the drug, washing in RPMI, and returning to culture conditions. Samples of each cell suspension were transferred to a -18 °C freezer at the start of the assay (time = 0) or treated for the entire 72 hours with 700 nM artesunate to determine background fluorescence under no-growth conditions. After a further 66 hours of incubation (totalling 72 hours), cells were […]
(§6) resuspended, and a sample from each well was transferred to a fresh plate and frozen at -18 °C.
(§7) Microscope slide smears were made using the remaining cells and stained with 10% v/v Giemsa. Plates were thawed and SYBR Safe DNA Gel Stain (final concentration 1/10,000) diluted in lysis buffer (as above) was added for DNA detection at 490 nm excitation / 520 nm emission on a FLUOstar Optima fluorescence plate reader. Parasite proliferation and viability were also assessed using Giemsa-stained smears examined under a light microscope (1,000× magnification); with ‘viable’ and ‘non-viable’ (vacuolated or pyknotic) parasites distinguished according to standard protocol. Images were captured using a Leica ICC50 camera, with a resolution of 76 nm per pixel.
(§8) Growth inhibition data were normalised by subtracting background fluorescence, […]

Series [3] relates to P. falciparum CAM3.II ring stages (0–3 h post invasion). In words: Plasmodium falciparum ring stage survival assay, resistant strain. As to the method:
as §1, §2, §3, §4, §5, §6, §7, §8

Broadly, the viability is a per cent measure of how many cells are alive, often set against a control.

Where “and” joins values, the source holds several entries; their conditions need not be identical. Equal values may be shown once. Read-outs that look alike come from different tables or passages of the source.

Take `COc1cc(NC(C)CCCNC(=O)CCC(=O)O[C@H]2CC[C@H]3[C@@H]4CC=C5C[C@@H](O)CC[C@]5(C)[C@H]4CC[C@]23C)c2ncccc2c1` (stereo partly drawn) [C-17-PQ]: the viability at 48 h, 0.0152416 µM in series [1] (0.015241580 uM) is 94.8%. Besides, in series [1] (0.045724740 uM), the viability at 48 h, 0.0457247 µM came out at 94.9%. Besides, the viability at 48 h, 0.137174 µM in series [1] worked out at 95.3%. The viability at 48 h, 0.411523 µM in series [1] (0.411522630 uM) is 94.5%.
Regarding `CC(C)OC(=O)CCC(=O)O[C@H]1CC[C@H]2[C@@H]3CC=C4C[C@@H](O)CC[C@]4(C)[C@H]3CC[C@]12C` [C-17-link], the “Ring stage survival, growth” value in series [2] (700 nM, 6 h treatment, 66 h further growth, CAM3.IIREV susceptible) is listed as “did not significantly impact the growth”; in series [3] (700 nM, 6 h treatment, 66 h further growth, CAM3.II resistant), “did not significantly impact the growth”. The “Ring stage survival, individual data points (Figure 4C)” value was 98.68 and 105.5 and 54.94 and 92.61 in series [2] (CAM3.11REV, replicate experiments, listed as HJB8a53); 67.82 and 103.7 and 86.39 and 70.09 in series [3] (CAM3.11, replicate experiments, listed as HJB8a53).
On to `COc1cc(NC(C)CCCNC(=O)CCC(=O)OC(C)C)c2ncccc2c1` (stereo not drawn) [PQ-link], for which the viability at 48 h, 0.137174 µM in series [1] (Huh7 hepatoma cells) is 99.3%.

These data come from paper PMC11251039, “Harnessing cholesterol uptake of malaria parasites for therapeutic applications” (EMBO Molecular Medicine, 2024).
